Columns and labels:
[1] = molecular target: T1, Trichoderma reesei CEL7B endoglucanase I (Trichoderma reesei, UniProt P07981); experiment: PASC hydrolysis by CEL7B endoglucanase I with tannic acid; format: biochemical
T1 construct: made in house; host or cells: Aspergillus oryzae JaL250
Description: (§1) The inhibitory effect of tannic acid was determined on Trichoderma reesei CEL7A cellobiohydrolase 1, Trichoderma reesei CEL6A cellobiohydrolase II, Trichoderma reesei CEL7B endoglucanase 1, and Trichoderma reesei CEL5A endoglucanase II using PASC as substrate.
(§2) To quantify the inhibition, tannic acid was evaluated in the hydrolysis of PASC.

[2] = tested on: T2, Cellulolytic Enzyme Composition #1; experiment: AVICEL hydrolysis by Cellulolytic Enzyme Composition #1 with added compounds; format: biochemical, Trichoderma reesei
T2 construct: other: PASC hydrolysis; mean ± SD; 0.01 g enzyme; Dixon plot linear regression intercept (1/Rate); other: AVICEL; rate from hydrolysis difference (%) at 0 and 6 hours; rate from hydrolysis difference; fused on or other part: The A. oryzae beta-glucosidase is the mature chain secreted behind the Humicola insolens endoglucanase V signal peptide, which is cleaved off
Source text: (§3) Initial hydrolysis rates were obtained from the first two hydrolysis time points (i.e., soluble sugar measurements) (with <20% hydrolysis extent in general, rate=(hydrolysis difference)/(time difference)). Double-reciprocal plots (1/(initial rate) vs 1/[cellulose] as function of tannic acid concentration) indicated a “mixed” type inhibition, but their complexity prevented extraction of simple inhibitor constants. Initial rate vs tannic acid concentration yielded an I50 (inhibitor concentration leading to 50% loss of hydrolysis rate) of 0.2±0.1 or 0.27±0.07 mM on PASC or AVICEL® hydrolysis, respectively
(§4) To examine where tannic acid exerted its inhibition, a series of hydrolysis reactions of AVICEL® by Cellulolytic Enzyme Composition #1 was performed in which AVICEL® and Cellulolytic Enzyme Composition #1 were used fresh or after pre-incubation with tannic acid. […] (with detectable precipitation seen), the pre-incubated Cellulolytic Enzyme Composition #1 was gel-filtered using BioSpin 6 desalting columns (Bio-Rad, Hercules, Calif., USA). […] Hydrolysis of untreated or buffer-only pre-incubated AVICEL® and Cellulolytic Enzyme Composition #1, with or without inhibitors, served as controls.

[3] = tested on: Cellulolytic Enzyme Composition #1; experiment: as above; format: biochemical, Trichoderma reesei; conditions: AVICEL pre-incubated with 1 mM tannic acid 1 hour at 50° C., then washed
Source text: as §3, §4

[4] = molecular target: T3, Trichoderma reesei CEL6A cellobiohydrolase II (Trichoderma reesei, UniProt P07987, P359R); experiment: PASC hydrolysis by CEL6A cellobiohydrolase II with tannic acid; format: biochemical; conditions: 1 mM tannic acid; 2 g PASC per liter, over 4 hours
T3 construct: made in house; host or cells: Fusarium venenatum
Description: as §1

[5] = molecular target: T4, Trichoderma reesei CEL5A endoglucanase II (Trichoderma reesei, UniProt P07982); experiment: PASC hydrolysis by CEL5A endoglucanase II with tannic acid; format: biochemical
T4 construct: made in house
Description: as §1, §2

[6] = 1 mM tannic acid, 2 g PASC per liter, over 4 hours
[7] = PASC, 0.1 to 0.7 mM tannic acid
[8] = 25 g AVICEL, 0.25 g enzyme per liter, 1 mM tannic acid, or 5 mM ellagic acid or 10 mM methyl gallate plus 1 mM glucose pentaacetate
[9] = AVICEL, rate from hydrolysis difference (%) at 0 and 6 hours

T4 sequence (P07982 22-418): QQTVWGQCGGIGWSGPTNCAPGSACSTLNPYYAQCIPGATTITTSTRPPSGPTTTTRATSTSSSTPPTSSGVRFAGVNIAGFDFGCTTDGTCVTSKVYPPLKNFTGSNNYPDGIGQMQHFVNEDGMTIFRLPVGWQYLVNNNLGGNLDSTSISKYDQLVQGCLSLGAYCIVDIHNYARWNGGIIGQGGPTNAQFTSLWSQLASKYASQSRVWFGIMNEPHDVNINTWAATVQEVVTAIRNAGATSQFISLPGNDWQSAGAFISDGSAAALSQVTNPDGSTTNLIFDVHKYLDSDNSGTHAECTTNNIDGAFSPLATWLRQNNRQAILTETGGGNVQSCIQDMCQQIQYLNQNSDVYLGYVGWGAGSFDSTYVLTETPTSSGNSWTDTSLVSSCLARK
T1 sequence (P07981 23-459): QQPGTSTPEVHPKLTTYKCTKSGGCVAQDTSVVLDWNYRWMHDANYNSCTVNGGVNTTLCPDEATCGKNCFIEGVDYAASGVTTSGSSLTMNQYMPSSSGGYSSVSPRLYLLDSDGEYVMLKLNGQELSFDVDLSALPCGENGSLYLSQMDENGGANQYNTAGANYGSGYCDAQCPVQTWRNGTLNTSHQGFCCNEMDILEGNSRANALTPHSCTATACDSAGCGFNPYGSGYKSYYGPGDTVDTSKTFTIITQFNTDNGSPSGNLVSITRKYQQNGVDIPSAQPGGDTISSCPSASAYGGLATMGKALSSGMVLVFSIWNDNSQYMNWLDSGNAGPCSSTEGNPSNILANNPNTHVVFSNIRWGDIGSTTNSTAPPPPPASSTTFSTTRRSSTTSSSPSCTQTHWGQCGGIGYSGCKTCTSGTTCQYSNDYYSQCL
T3 sequence (P07987 25-471 P359R): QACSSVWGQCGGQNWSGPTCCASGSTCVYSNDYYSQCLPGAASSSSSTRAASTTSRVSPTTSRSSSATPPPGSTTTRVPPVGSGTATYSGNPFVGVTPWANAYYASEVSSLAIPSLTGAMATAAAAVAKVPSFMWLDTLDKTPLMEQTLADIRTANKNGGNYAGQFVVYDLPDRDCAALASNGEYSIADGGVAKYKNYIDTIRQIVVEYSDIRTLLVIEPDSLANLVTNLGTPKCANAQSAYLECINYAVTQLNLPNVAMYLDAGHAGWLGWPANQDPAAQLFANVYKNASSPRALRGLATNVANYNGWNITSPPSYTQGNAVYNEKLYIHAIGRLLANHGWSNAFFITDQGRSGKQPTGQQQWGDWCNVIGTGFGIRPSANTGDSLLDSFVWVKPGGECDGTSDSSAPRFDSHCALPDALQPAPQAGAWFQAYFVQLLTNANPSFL

## O=C(OC[C@H]1O[C@@H](OC(=O)c2cc(O)c(O)c(OC(=O)c3cc(O)c(O)c(O)c3)c2)[C@H](OC(=O)c2cc(O)c(O)c(OC(=O)c3cc(O)c(O)c(O)c3)c2)[C@@H](OC(=O)c2cc(O)c(O)c(OC(=O)c3cc(O)c(O)c(O)c3)c2)[C@@H]1OC(=O)c1cc(O)c(O)c(OC(=O)c2cc(O)c(O)c(O)c2)c1)c1cc(O)c(O)c(OC(=O)c2cc(O)c(O)c(O)c2)c1 [tannic acid, Tannic acid]
[1]; [6]
  effect on PASC hydrolysis by CEL7B endoglucanase I: significantly inhibited
[1]; PASC hydrolysis, mean ± SD, 0.04 g enzyme per liter, pH 5, 50° C., read-out: I50 for CEL7B EGI
  IC50: 300 ± 200 µM
[1]; [7]
  type of inhibition (double reciprocal plots), CEL7B EGI: mixed
[2]; [8]
  loss in initial rate of AVICEL hydrolysis: ~90%
  loss in the extent of AVICEL hydrolysis at day 8: ~70%
[2]; AVICEL hydrolysis, Cellulolytic Enzyme Composition #1, OPC in flavanone-equivalent subunits, read-out: inhibition constant Ki (x-intercept of Dixon plot)
  Ki: ~130 µM
[2]; AVICEL hydrolysis, 0.01 g enzyme per liter, pH 5.0, 50° C., read-out: I50 (inhibitor concentration leading to 50% loss of hydrolysis rate)
  IC50: 270 ± 70 µM
[2]; [9]
  Dixon plot linear regression intercept (1/Rate): 0.045±0.017
  Dixon plot linear regression slope (1/Rate vs inhibitor concentration): 0.356±0.033
[2]; enzyme pre-incubated with 1 mM tannic acid 1 hour at 50° C., then gel-filtered
  activity loss of pre-incubated Cellulolytic Enzyme Composition #1: approximately 80%
[2]; tannic acid 0.05 mM to 1 mM, OPC 1 mM to 10 mM, 23 g AVICEL and 0.25 g enzyme per liter
  concentration dependence of inhibition of AVICEL hydrolysis: increasingly inhibitory
[3]
  effect of pre-incubating AVICEL with inhibitor on hydrolysis: did not affect the hydrolysis
[4]
  effect on PASC hydrolysis by CEL6A cellobiohydrolase II: significantly inhibited
[5]; [6]
  effect on PASC hydrolysis by CEL5A endoglucanase II: significantly inhibited
[5]; PASC hydrolysis, mean ± SD, 0.04 g enzyme per liter, pH 5, 50° C., read-out: I50 for CEL5A EGII
  IC50: 320 ± 50 µM
[5]; [7]
  type of inhibition (double reciprocal plots), CEL5A EGII: mixed
